# In patent US20100009348A1, “Methods and Constructs for Analyzing Biological Activities of Biological Specimens and Determining States of Organism” (ATTAGENE, INC., priority 2005, published 2010):
# Assay: STZ-induced type I diabetes in rats, blood glucose concentration
# Format: in vivo, rat
# Conditions: Sprague-Dawley male rats, single intra-peritoneal injection of 70 mg/kg STZ, seven days following the injection, tail vein blood
# Source text: Experimental type I diabetes mellitus was induced in rats by using Streptozotocin (STZ), a N-nitroso derivative of D-glucosamine. Streptozotocin causes rapid necrosis in pancreatic β-cells of islets of Langerhans (Okamoto, 1985, Bioessays 2:15-21). STZ has been widely used to provoke insulin-dependent diabetes conditions in various laboratory animals, and animals treated with STZ are recognized in the art as a model of diabetes mellitus (Like and Rossini, 1976, Science 193:415-417).
# The design of the approach to compare sera from diabetic and healthy rats is illustrated in FIG. 4. Sprague-Dawley male rats aged 10-12 weeks were randomly allocated in two groups. Rats from one group received a single intra-peritonial injection of 70 mg/kg STZ (Sigma-Aldrich, St. Louis, Mo., USA) dissolved in freshly prepared 50 mM citrate buffer (pH, 4.0). Animals in control group received an equivalent volume of the citrate buffer. Seven days following the injection, blood samples were derived from a tail vein of the control and STZ treated animals. Development of the diabetic conditions in STZ treated animals was confirmed by blood glucose concentration measurements.
smiles,measurement,value
"CN(N=O)C(=O)N[C@H]1C(O)O[C@H](CO)[C@@H](O)[C@@H]1O (mixture of isomers) [STZ, Streptozotocin]",blood glucose levels (hyperglycemia),at least 300 mg/dl
